What all share (type): in vivo
For data set [1], the system named is adult, Pyrethroid-susceptible horn fly (Haematobia irritans). The data set can be described thus: Adult pyrethroid-susceptible horn fly, treated filter paper (Table III). The settings on record: topical, 6 h, read-out: 6 Hour % Mortality. As for the experimental part: Test doses are expressed as μg of test substance per cm^2 of filter paper.
1) Prepare solutions of test compound in acetone such that 800 or 1000 μL contains the amount necessary to obtain the desired dose rate.
2) Pipette 800 or 1000 μL of test solution onto filter paper.
3) Filter papers are dried under a fume hood.
4) When dry, filter papers are placed in the petri dish tops. Dishes are generally held about 24 hours before test organism is added.
5) Two- to five-day-old horn flies (pyrethroid-susceptible or -resistant) which have had two or more blood meals are used in the assay. Flies are collected into a small vial from the holding cage. Vials are then chilled in a freezer for about 4 minutes to immobilize the flies. Immobilized flies are then distributed to petri dish bottoms, 12 to 25 flies per dish, then dishes are closed and inverted.
6) As soon as the flies become mobile (about 5 minutes), they are examined to detect any flies that are dead or injured. This number is subtracted from total number of flies in the dish.
7) Petri dishes are held at room temperature and examined at the desired time intervals which might be 10 minutes to 6 hours.
8) All dead flies are recorded at each examination time. A fly is considered dead if it cannot walk even though it may still be moving.
10) Percent mortality at any time period is calculated using the following formula: […]
Number of dead flies-number dead @5 min/Total number of flies-number dead
Percent mortality is then corrected for control mortality using Abbot's formula.

Data set [2] concerns Dermacentor variabilis (American dog tick). The data set can be described thus: Contact activity against the larval American dog tick (Table II). Particulars: topical. How it is done:
This test is designed to evaluate the contact activity of test compounds against the American dog tick. Test compounds are dissolved in 100% acetone to 1000, 300, 100, 10, 1 and 0.1 ppm. 100 μL of each of these dilutions is added to the bottom of a 20 mL glass scintillation vial with a pipettor. The vial is allowed to dry under a fume hood for 15 minutes. The vial is then turned in its side, and 250 μL of each dilution is applied to the sides of the vial. The vial is placed on a rolling machine and allowed to roll under the hood, coating the sides of the vial, until the acetone completely evaporates. The bottom of the vial measures 4.909 cm^2 and the sides measure 4.5 cm high×8.8 cm around, so that the total coated area of the scintillation vial measures 44.51 cm^2. The amount of test compound applied by each dilution equals 7.86, 2.36, 0.79, 0.079, 0.0079 and 0.00079 μg/cm^2, respectively. Unfed larval dog ticks are counted into the scintillation vials with a slightly damp paintbrush. Ten ticks are placed in each vial. These tests are done in replicates of two or three so that there are 20 to 30 ticks per rate/compound. Mortality readings are taken 4 and 24 hours after placing the ticks in the vials. To read the test, the vial is placed under a magnifying glass and tapped gently. […] Percent mortality is then calculated for each treatment.

In data set [3] the test system is Ctenocephalides felis (cat flea). The data set can be described thus: whole plant or invertebrate. The settings on record: topical, 24 h, read-out: 24 Hour % Mortality. As for the experimental part: (§1) This test is designed to evaluate the contact activity of test compounds against the adult cat flea. Test compounds are dissolved in 100% acetone to 300, 100, 10 and 1 ppm. 100 μL of each of these dilutions is added to the bottom of a 20 mL glass scintillation vial with a pipettor. The vial is allowed to dry under a fume hood for 15 minutes. The bottom of the vial measures 4.909 cm^2. The amount of test compound applied by each dilution equals 6.2, 2.0, 0.2 and 0.02 μg/cm^2, respectively. Newly emerged adult cat fleas are anesthetized with CO2 to immobilize, and are counted into the scintillation vials with forceps. Five fleas are placed in each vial. These tests are done in replicates of two or three so that there are 10 to 15 fleas per rate/compound. Mortality readings are taken 4 and 24 hours after placing the fleas in the vials. […] Percent mortality is then calculated for each treatment.
This test evaluates the synergistic effect of piperonyl butoxide on the formula I compounds of this invention. Piperonyl butoxide (PBO) is added in an amount of 1.5% to a 1,000 ppm solution of a test compound in acetone. Dilutions are then made with acetone to provide solutions containing 300, 100, 10 and 1 ppm of the test compound and 0.45%, 0.15%, 0.015% and 0.0015% piperonyl butoxide, respectively. Solutions containing 1,000, 300, 100, 10 and 1 ppm of the test compound alone are used as the control. […]

Data set [4] concerns Bovicola spp. (biting louse). The data set can be described thus: Activity against the adult biting louse (Table VI). The settings on record: dose 2.0 μg/cm^2. How it is done: This test is designed to evaluate the activity of test compounds against the biting louse. Test compounds are dissolved in 100% acetone to 300, 100 and 10 ppm. 100 μL of each of these dilutions is added to the bottom of a 20 mL glass scintillation vial with a pipettor. The vial is allowed to dry under a fume hood for 15 minutes. The bottom of the vial measures 4.909 cm^2. The amount of test compound applied by each dilution equals 6.1, 2.0 and 0.2 μg/cm^2, respectively. Included in all tests are two to three replications of untreated vials. Lice are collected from the host animal and are used within 4 hours. The lice are counted into the scintillation vials with a slightly damp paintbrush. Five adult lice are placed in each vial. These tests are done in replicates of two or three so that there are 10 to 15 lice per rate/compound. Mortality readings are taken at 2 and 4 hours after placing the lice in the vials. To read the test, the vial is placed under a magnifying glass. […] Percent mortality is then calculated for each treatment.

In data set [5] the test system is Ctenocephalides felis (cat flea). The experiment in a line: Contact activity against the adult cat flea (Table I). Particulars: topical. As for the experimental part:
as §1

Data set [6] relates to Musca domestica (house fly). The data set can be described thus: Activity against the adult house fly (Table V). As for the experimental part:
This test is designed to evaluate the activity of test compounds against the house fly. Test compounds are dissolved in 100% acetone to 1000, 300, 100, 10 and 1 ppm. 100 μL of each of these dilutions is added to the bottom of a 20 mL glass scintillation vial with a pipettor. The vial is allowed to dry under a fume hood for 15 minutes. The vial is then turned on its side, and 250 μL of each dilution is applied to the sides of the vial. The vial is placed on a rolling machine and allowed to roll under the hood, coating the sides of the vial, until the acetone completely evaporates. The bottom of the vial measures 4.909 cm^2 and the sides measure 4.5 cm high×8.8 cm around, so that the total coated area of the scintillation vial measures 44.51 cm^2. The amount of test compound applied by each dilution equals 7.86, 2.36, 0.79, 0.079, and 0.0079 μg/cm^2, respectively. Included in all tests are two to three replications of untreated vials. Adult house flies which are five to seven days old are chilled in a freezer for five minutes to immobilize, and are placed on a sorting platform which provides a steady stream of CO2 to keep the flies immobile. Five flies are counted into each scintillation vial with forceps. The top of the vial is plugged with a wad of sheet cotton sufficient to contain the flies. These tests are done in replicates of two to four so that there are 10 to 20 flies per rate/compound. Mortality readings are taken 1 and 4 hours after placing the flies in the vials. Flies which are unable to stand when disturbed are considered dead. Percent mortality is then calculated for each treatment.

The mark [7] stands for this setting: 4 hours, dose 0.079 μg/cm^2, read-out: 4 Hour % Mortality.
Setting [8] is: 4 hours, dose 0.790 μg/cm^2, read-out: 4 Hour % Mortality.
Where [9] appears, read: 4 hours, dose 2.360 μg/cm^2, read-out: 4 Hour % Mortality.
The mark [10] stands for this setting: 4 hours, dose 7.860 μg/cm^2, read-out: 4 Hour % Mortality.
Where [11] appears, read: 24 hours, dose 0.079 μg/cm^2, read-out: 24 Hour % Mortality.
The mark [12] stands for this setting: 24 hours, dose 0.790 μg/cm^2, read-out: 24 Hour % Mortality.
Where [13] appears, read: 24 hours, dose 2.360 μg/cm^2, read-out: 24 Hour % Mortality.
The mark [14] stands for this setting: 24 hours, dose 7.860 μg/cm^2, read-out: 24 Hour % Mortality.
Setting [15] is: 4 h, read-out: 4 Hour % Mortality.
[16] abbreviates: 24 h, read-out: 24 Hour % Mortality.
The mark [17] stands for this setting: 1 h, read-out: 1 Hour % Mortality.

As usually defined, the mortality is the share of the test organisms that died.

The structures appear in SMILES notation. Like-named read-outs stand apart in the source and are kept apart here.

Turning to `F/C(=C\Cc1ccc(F)c(Oc2ccc(F)cc2)c1)C(c1ccc(Cl)cc1)C1CC1` (racemic) [Compound 18], in data set [1], the mortality at 0.625 µg/cm2 amounted to 4%, the mortality at 1.25 µg/cm2 turned out to be 36%, the mortality at 2.5 µg/cm2 is 94% and the mortality at 5 µg/cm2 worked out at 99%. Besides, in data set [1], the mortality at 10 µg/cm2 was found to be 100%.

`F/C(=C\Cc1ccc(F)c(Oc2ccccc2)c1)C(c1ccc(Cl)cc1)C1CC1` (stereo not drawn) [Compound 5, 1-[1-(p-Chlorophenyl)-2-fluoro-4-(4-fluoro-3-phenoxyphenyl)-2-butenyl]cyclopropane, (Z)-]: the mortality at 0.00079 µg/cm2 in data set [2] (4 hours, dose 0.00079 μg/cm^2, read-out: 4 Hour % Mortality) is 100%; in data set [2] (24 hours, dose 0.00079 μg/cm^2, read-out: 24 Hour % Mortality) it was 100%. In addition, the mortality at 0.0079 µg/cm2 came out at 100% in data set [2] (4 hours, dose 0.0079 μg/cm^2, read-out: 4 Hour % Mortality) and 100% in data set [2] (24 hours, dose 0.0079 μg/cm^2, read-out: 24 Hour % Mortality). Further, the mortality at 0.079 µg/cm2 in data set [2] (setting [7]) and in data set [2] (setting [11]) was 100% throughout. The mortality at 0.79 µg/cm2 in data set [2] (setting [8]) and in data set [2] (setting [12]) was 100% throughout. The mortality at 2.36 µg/cm2 in data set [2] (setting [9]) and in data set [2] (setting [13]) was 100% throughout. The mortality at 7.86 µg/cm2 in data set [2] (setting [10]) and in data set [2] (setting [14]) was 100% in each case. For the same compound, the values for the mortality at 2 µg/cm2 in data set [3] and in data set [5] (setting [15]) were 100% and 79%, respectively. Further, the mortality at 6.2 µg/cm2 in data set [3] came out at 100%; in data set [5] (4 hours, dose 6.20 μg/cm^2, read-out: 4 Hour % Mortality) it was 98%. Besides, the “2 Hour % Mortality” value in data set [4] stood at 92%. The mortality at 0.02 µg/cm2 in data set [5] (setting [15]) came out at 34%; in data set [5] (setting [16]), 69%. Moreover, the figures for the mortality at 0.2 µg/cm2 in data set [5] (setting [15]) and in data set [5] (setting [16]) were 39% and 81%, respectively.

For the compound `CCOc1ccc(C(/C(F)=C/Cc2ccc(F)c(Oc3ccccc3)c2)C2CC2)cc1` (stereo not drawn) [Compound 10, 1-[1-(p-Ethoxyphenyl)-2-fluoro-4-(4-fluoro-3-phenoxyphenyl)-2-butenyl]cyclopropane, (Z)-], the mortality at 0.079 µg/cm2 in data set [2] (setting [7]) turned out to be 100%; in data set [2] (setting [11]), 100%; in data set [6] (setting [17]) it was 20%; in data set [6] (setting [15]), 60%. Besides, the mortality at 0.79 µg/cm2 is 100% in data set [2] (setting [8]), 100% in data set [2] (setting [12]), 20% in data set [6] (setting [17]) and 75% in data set [6] (setting [8]). In addition, the mortality at 2.36 µg/cm2 in data set [2] (setting [9]) is 100%; in data set [2] (setting [13]), 100%; in data set [6] (setting [17]), 40%; in data set [6] (setting [15]), 100%. Besides, the mortality at 7.86 µg/cm2 in data set [2] (setting [10]) and in data set [2] (setting [14]) was 100% each time. Also, the mortality at 0.02 µg/cm2 in data set [5] (setting [15]) came out at 10%; in data set [5] (setting [16]) it was 20%. Further, the mortality at 0.2 µg/cm2 in data set [5] (setting [15]) is 68%; in data set [5] (setting [16]), 95%. The mortality at 2 µg/cm2 in data set [5] (setting [15]) is 70%; in data set [5] (setting [16]) it was 100%. Further, the mortality at 6.2 µg/cm2 in data set [5] (setting [15]) and in data set [5] (setting [16]) was 100% in each case.
